From patent US6902933B2, “Surface transfection and expression procedure” (Regents of the University of Michigan, priority 2000, dated 2005)

Key:
Format in all cases: cell-based
human MC1R = molecular target: T1, human MC1R (Homo sapiens, UniProt Q01726); experiment: Dose response of melanocortin receptor 1 agonists, pCRE-Luciferase reporter, 96 well STEP; conditions: increasing concentrations, 6 hours; HEK-239T cells; FIG. 8
T1 construct: expressed in transfected cells; host or cells: HEK-293T
Procedure: In the following examples a polylysine coated 96 well plate was used. DNA transfection complexes were generated essentially as described in Example 1. The components a-d from Example 1 were added sequentially but without the 5 min. incubation. The DNA transfection complexes were applied by direct pipetting (complexes can also be applied by automated liquid handling systems) to the bottom of each well in a total volume of 20 μl, and the spots were allowed to dry under ambient conditions until completely dry. HEK-293T cells were prepared as in Example 1.200 μl of media containing 10^4 HEK-293T cells were added to each well. When using the expression vector pZsGreen-N1 (Clontech BD), which encodes a variant of wild-type Zoanthus sp. green fluorescent protein ZsGreen; (excitation maximum=496 nm; emission maximum=506 nm. Ref: Matz, M. V., et al. (1999) Nature Biotech. 17:969-973), the cells were visualized using fluorescent microscopy after 24 and 48 hours following transfections.
DNA complexes were formed with human MC1R cDNA (GenBank Accession No. X67594) and with either pCRE-Luciferase or the control plasmid pTal-Luciferase (lacking the CRE binding sequences). The complexes were applied to the surface of individual wells of a polylysine coated 96 well plate; after complete drying, HEK-239T cells were then added. […]

[1] = system: cyclic AMP responsive promoter (pCRE-d2EGFP) in HEK-293T cells; experiment: STEP D1 activation experiment, control vector pCMV.Neo with pCRE-d2EGFP reporter; conditions: HEK-293T cells transfected with control vector CMV.Neo and pCRE-d2EGFP; 48 hours; GFP fluorescence, MCID image analysis
Procedure: (§1) The purpose of the experiment was to measure activation of the D1 dopamine receptor by a D1 receptor agonist, Chloro-APB (C1-APB). Activation of the D1 receptor by C1-APB could be measured by virtue of it's coupling to adenylate cyclase and subsequent generation of cyclic AMP, as indicated by the pathway shown in FIG. 3.
(§2) Three hundred nanograms of pCMV.D1 (or control vector pCMV.Neo) and 300 ng of pCRE-d2EGFP in 10 microliters were mixed with 10 microliters of transferrin-polylysine complex (1 mg/ml). After 10 minutes, 10 microliters of lipofectamine (1 mg/ml) were added and the mixture incubated for an addition 10 minutes. Spots of approximately 100 nanoliters were placed onto four different polylysine coated microscope slides, and the spots allowed to dry under ambient room conditions. HEK-293T cells were then plated onto three slides, while one slide was grown only in media containing serum. The three slides plated with cells were grown in the presence of either C1-APB or the phosphodiesterase inhibitor IBMX or both C1-APB and IBMX.
(§3) After 48 hours, the cells were examined using fluorescence microscopy.

[2] = molecular target: T2, human D1 dopamine receptor (Homo sapiens, UniProt P21728); experiment: STEP D1 dopamine receptor activation assay with pCRE-d2EGFP reporter; conditions: 48 hours, C1-APB 1 micromolar; for Pixels per spot in STEP D1 activation experiment: HEK-293T cells transfected with CMV.D1 and pCRE-d2EGFP, GFP fluorescence, MCID image analysis
T2 construct: expressed in transfected cells; host or cells: HEK-293T
T2 sequence (P21728 whole entry): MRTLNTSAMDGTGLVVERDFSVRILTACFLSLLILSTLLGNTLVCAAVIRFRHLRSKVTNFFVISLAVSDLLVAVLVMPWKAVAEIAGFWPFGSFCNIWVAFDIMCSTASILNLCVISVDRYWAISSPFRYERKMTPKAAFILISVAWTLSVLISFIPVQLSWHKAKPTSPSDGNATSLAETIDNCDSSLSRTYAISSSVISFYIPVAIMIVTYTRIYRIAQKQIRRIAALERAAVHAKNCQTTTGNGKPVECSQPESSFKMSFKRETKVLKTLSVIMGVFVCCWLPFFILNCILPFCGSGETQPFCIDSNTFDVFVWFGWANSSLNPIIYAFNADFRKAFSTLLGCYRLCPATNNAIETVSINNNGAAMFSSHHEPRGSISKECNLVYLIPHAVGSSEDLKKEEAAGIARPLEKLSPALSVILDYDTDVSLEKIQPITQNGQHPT
Procedure: as §1
as §2, with “HEK-293T cells were then plated onto three slides, while one slide was grown only in media containing serum.” left out
as §3

[3] = system: tetracycline responsive element; experiment: Transactivation assay using a tetracycline inducible system (pBi-EGFP) after STEP transfection; conditions: HEK TetOn cells; 10 mg/ml of doxycycline; 48 hours after plating
Procedure: To determine whether STEP transfection could be modified to generate inducible expression of a protein, the tetracycline inducible system developed by Bujard and coworkers was employed (Baron et al. (2000) Proc Natl Acad Sci USA 96:1013-1018). […] Two DNA complexes were prepared for these experiments, one containing the pBi-EGFP plasmid (Clontech) directing the expression of EGFP under the control of a tetracycline responsive element and another complex containing pEGFP-C1 plasmid DNA (Clontech) with EGFP expression under the control of the strong human cytomegalovirus early promoter. Spots for each of these complexes were applied next to each other on each of two different microscope slides and HEK TetOn cells were plated onto each slide in separate 10 cm culture dishes. Twenty-four hours after transfection, one plate was incubated in DMEM and 10% FCS while the other was incubated in the same media containing 10 mg/ml of doxycycline. Fluorescence photomicrographs were prepared 48 hours after plating of the cells. […] In the absence of doxycycline, none of the cells on the pBiEGFP spot were fluorescent while approximately 30% of the cells on the pEGFP-C1 spot were fluorescent.

[4] = system: rat PC-12 pheochromocytoma; experiment: STEP transfection efficiency with different cell surface ligands in the transfection complex; conditions: PC-12 cells; ligand in the transfection complex; GFP fluorescence; penton protein 0.64 mg/ml
Procedure: In the following experiments, transfection complexes were formed as described in Example 1, except that in the preparation of some transfection complexes, purified penton protein was used instead of transferring the penton protein was used at a concentration of 0.64 mg/ml. Transfection complexes were thus prepared with either transferrin or penton protein. After immobilizing the complexes as described in Example 1, the cell lines rat PC-12 pheochromocytoma and HEK-293T were transfected as described in Example 1.
The results are shown in FIG. 4 as sets of images; the cell line is indicated at the top of the images, and the ligand used in the transfection complex is indicated to the right of the images. The images under each indicated cell line are either brightfield images (to the left) or fluorescence images (to the right).

T1 sequence (Q01726 whole entry): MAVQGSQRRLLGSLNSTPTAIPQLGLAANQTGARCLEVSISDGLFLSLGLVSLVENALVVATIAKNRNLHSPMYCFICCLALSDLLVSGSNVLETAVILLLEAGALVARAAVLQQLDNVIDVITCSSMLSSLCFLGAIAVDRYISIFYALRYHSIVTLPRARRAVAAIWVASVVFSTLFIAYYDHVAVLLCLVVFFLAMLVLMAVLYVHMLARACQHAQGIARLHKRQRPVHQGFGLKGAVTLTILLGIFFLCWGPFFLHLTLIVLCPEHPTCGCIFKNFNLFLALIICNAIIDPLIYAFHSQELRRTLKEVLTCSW

In the case of αMSH, the “luciferase activity, dose response curve of the MC1R” value (human MC1R) was “signal is well above background”.

For `CC(C)Cn1c(=O)n(C)c(=O)c2[nH]cnc21` [UBMX, IBMX], the “Pixels per spot in STEP D1 activation experiment” value (“Pixels per spot” below) [1] was 65 + 32 pixels per spot and the “Pixels per spot” value [2] was 165 + 35 pixels per spot.

`C=CCN1CCc2c(cc(O)c(O)c2Cl)C(c2ccccc2)C1` (stereo not drawn) [Cl-APB, Chloro-APB] was tested, and the “Pixels per spot” value [1] was 46 + 38 pixels per spot, the “Pixels per spot” value [2] was 447 + 38 pixels per spot and the “expression of the green fluorescent protein reporter” value ([2]; cells expressing the D1 receptor, fluorescence microscopy) was “significantly greater expression”.

With `C[C@H]1c2cccc(O)c2C(=O)C2=C(O)[C@]3(O)C(=O)C(C(N)=O)=C(O)[C@@H](N(C)C)[C@@H]3[C@@H](O)[C@@H]21` [doxycycline] the “cells on the pBi-EGFP spot with detectable GFP expression” value [3] was 20%.

With N-acetyl-[Cys^4,10,D-Phe^7]-αMSH the “luciferase activity, dose response curve of the MC1R” value (human MC1R) was “signal is well above background”.

For “transferrin: ligand for a receptor which is endocytosed, used as complexing agent in the transfection complex”, the transfection efficiency [4] was “less than 10%”.
